Assay results from paper PMC12562668, “Targeting NFAT2 for Reversing the P-gp-Mediated Multidrug Resistance to Paclitaxel by Manidipine” (Cancers, 2025).

Experiments:
[1] = target: T1, P-glycoprotein (P-gp) (Homo sapiens, UniProt P08183); assay: Pgp-Glo P-gp ATPase assay: stimulation of basal activity; also inhibition of verapamil-stimulated activity; format: biochemical
T1 construct: gene ABCB1

[2] = target: T2, NFAT2 (Homo sapiens, UniProt O95644); assay: DARTS in A549/T cell lysate with NFAT2 immunoblot; format: cell-based
T2 construct: gene NFATC1
T2 sequence (O95644 1-943): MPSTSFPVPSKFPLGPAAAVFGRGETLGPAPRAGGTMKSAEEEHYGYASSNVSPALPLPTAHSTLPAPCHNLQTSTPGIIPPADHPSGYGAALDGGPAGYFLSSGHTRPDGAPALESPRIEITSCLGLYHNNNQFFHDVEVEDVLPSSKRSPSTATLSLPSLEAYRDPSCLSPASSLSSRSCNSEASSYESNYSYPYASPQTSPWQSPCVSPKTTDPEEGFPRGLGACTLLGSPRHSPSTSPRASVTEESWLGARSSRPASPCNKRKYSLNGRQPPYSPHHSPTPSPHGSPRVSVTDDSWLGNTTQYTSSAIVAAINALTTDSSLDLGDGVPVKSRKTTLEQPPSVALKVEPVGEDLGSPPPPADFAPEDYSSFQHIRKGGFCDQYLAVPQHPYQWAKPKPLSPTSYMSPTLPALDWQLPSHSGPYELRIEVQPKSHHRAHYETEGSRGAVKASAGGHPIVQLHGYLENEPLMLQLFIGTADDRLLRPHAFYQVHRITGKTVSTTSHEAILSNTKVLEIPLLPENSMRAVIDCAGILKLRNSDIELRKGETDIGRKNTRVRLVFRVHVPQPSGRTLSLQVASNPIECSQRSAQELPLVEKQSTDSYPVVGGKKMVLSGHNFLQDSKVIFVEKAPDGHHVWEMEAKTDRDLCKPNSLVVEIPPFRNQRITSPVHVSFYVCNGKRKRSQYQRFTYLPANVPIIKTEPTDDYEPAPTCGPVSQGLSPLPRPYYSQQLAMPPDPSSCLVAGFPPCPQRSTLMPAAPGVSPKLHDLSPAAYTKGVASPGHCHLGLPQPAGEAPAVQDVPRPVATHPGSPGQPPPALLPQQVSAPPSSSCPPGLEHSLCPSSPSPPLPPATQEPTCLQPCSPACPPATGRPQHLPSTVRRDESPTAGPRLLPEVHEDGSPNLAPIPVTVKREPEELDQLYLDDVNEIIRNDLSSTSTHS

T1 sequence (P08183 whole entry): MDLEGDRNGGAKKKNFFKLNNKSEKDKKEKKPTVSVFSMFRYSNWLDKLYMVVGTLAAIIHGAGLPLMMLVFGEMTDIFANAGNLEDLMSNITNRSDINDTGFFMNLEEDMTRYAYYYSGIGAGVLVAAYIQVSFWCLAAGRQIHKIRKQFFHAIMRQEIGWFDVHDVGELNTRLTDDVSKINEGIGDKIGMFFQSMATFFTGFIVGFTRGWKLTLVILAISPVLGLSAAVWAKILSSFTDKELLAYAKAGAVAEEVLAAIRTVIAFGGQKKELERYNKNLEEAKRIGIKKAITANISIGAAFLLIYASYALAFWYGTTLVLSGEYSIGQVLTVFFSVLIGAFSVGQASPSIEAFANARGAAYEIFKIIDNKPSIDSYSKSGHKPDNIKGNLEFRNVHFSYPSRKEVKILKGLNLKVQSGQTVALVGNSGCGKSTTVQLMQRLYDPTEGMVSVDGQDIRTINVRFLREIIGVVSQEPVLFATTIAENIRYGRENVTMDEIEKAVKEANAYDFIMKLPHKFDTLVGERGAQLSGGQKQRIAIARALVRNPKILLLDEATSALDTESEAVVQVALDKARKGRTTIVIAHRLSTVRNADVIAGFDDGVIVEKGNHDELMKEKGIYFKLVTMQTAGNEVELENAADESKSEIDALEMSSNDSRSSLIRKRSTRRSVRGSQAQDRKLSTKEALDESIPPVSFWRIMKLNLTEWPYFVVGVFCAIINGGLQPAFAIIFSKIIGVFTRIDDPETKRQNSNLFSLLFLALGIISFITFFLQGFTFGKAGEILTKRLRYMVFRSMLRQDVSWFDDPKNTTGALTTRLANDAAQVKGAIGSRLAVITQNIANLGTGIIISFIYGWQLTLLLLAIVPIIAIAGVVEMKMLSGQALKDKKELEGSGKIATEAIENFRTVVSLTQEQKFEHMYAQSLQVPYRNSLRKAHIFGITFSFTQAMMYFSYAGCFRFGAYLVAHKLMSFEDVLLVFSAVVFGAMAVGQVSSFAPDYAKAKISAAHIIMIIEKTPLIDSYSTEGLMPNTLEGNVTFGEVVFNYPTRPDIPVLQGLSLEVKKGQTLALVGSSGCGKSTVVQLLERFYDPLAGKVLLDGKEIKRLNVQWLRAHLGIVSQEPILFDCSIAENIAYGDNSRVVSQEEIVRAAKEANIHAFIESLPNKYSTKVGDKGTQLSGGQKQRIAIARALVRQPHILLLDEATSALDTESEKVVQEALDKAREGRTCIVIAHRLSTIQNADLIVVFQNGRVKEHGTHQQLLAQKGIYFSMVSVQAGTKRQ

## COC(=O)C1=C(C)NC(C)=C(C(=O)OCCN2CCN(C(c3ccccc3)c3ccccc3)CC2)C1c1cccc([N+](=O)[O-])c1 (centres unmarked) [MA, manidipine]
[1]
  EC50: 4.16 µM
[2]
  DARTS in A549/T cell lysate with NFAT2 immunoblot: MA effectively protected the NFAT2 protein from proteolysis (Figure 7F,G), thereby indicating that MA is a ligand of NFAT2
